Assay results published in publication PMC11412489, “Coumarin derivatives as new anti-biofilm agents against Staphylococcus aureus” (PLOS ONE, 2024).
Read-outs that look alike come from different tables or passages of the source.

Legend:
Format in all cases: cell-based, Staphylococcus aureus
[1] = test system: biofilm of S. aureus ATCC 6538; experiment: 96-well plate crystal violet assay for biofilm inhibition; conditions: for inhibition at 3.125 µg/mL / inhibition at 6.25 µg/mL / inhibition at 12.5 µg/mL / inhibition at 25 µg/mL / inhibition at 50 µg/mL / inhibition at 100 µg/mL: Staphylococcus aureus, ATCC6538
Protocol: The quantitative determination of biofilm inhibition was carried out by the crystal violet assay on a sterile 96-well plate with slight modifications. The glycerol stock of S. aureus was revived overnight at 37°C at 80 rpm. The overnight culture was then diluted 100 folds in fresh BHI broth, supplemented with 0.25% glucose. The cell density was adjusted to 1×10^7 and 195μL of the cell suspension was added in 96-well plate. […] Following that, the plate was washed with sterile distilled water in order to decant the non-adherent cells, and media. The plate was then dried at 60°C for 1 hour, and 200 μL of 0.1% (w/v) crystal violet was added to stain biofilm for 20 minutes. The plate was washed again, air dried, and dispensed 30% (v/v) acetic acid in each well to dissolve the biofilm. The inhibition of biofilm formation was analyzed by measuring the absorbance at 595 nm using the microplate reader (Multiskan Sky, Thermo Scientific, USA). The percent inhibition of biofilm formation was calculated via the following formula: 100−ƛTreated−ƛBlank/ƛControl−ƛBlank×100 Whereƛ=absorbance

S. aureus = experiment: Antibacterial activity (bacterial growth inhibition); conditions: at 100 μg/mL; for inhibition at 100 µg/mL: Staphylococcus aureus, read-out: Antibacterial Activity (% Inhibition ± SEM)
[2] = test system: biofilm cells of the S. aureus strain (ATCC 6538); experiment: Biofilm analysis by fluorescence microscopy (SYTO-9/PI); conditions: SYTO-9/PI staining, S. aureus ATCC 6538, 24 hours
Protocol: Briefly, 1×10^7 cells were loaded in 96-well plate, and treated with active compounds. Plate was sealed, and incubated for 24 hours at 37°C. Following incubation, plate was washed with sterile distilled water, and cells were stained with […] SYTO-9 and 5 μM PI, for 30 minutes in dark at room temperature. After incubation, the wells were washed again, and air dried. Images were taken, and then visualized by Nikon Eclipse TE2000, USA [23]. Propidium Iodide (PI) staining indicates membrane integrity, as it can only pass through compromised membranes of non-viable cells, giving red fluorescence. On the contrary, Syto-9 can pass through all cells despite of their membrane integrity, and binds to DNA/RNA by emitting green fluorescence.

S. aureus biofilm = experiment: Atomic force microscopy analysis of biofilm disruption; conditions: compared to control S. aureus cells, 24 hours
Protocol: The size and structure of disrupted biofilm was analyzed. Briefly, a pure single colony of S. aureus was inoculated in BHI broth and grown for 18–24 hours at 37°C. Following incubation, the cells were diluted in BHI broth, and density was adjusted to 1×10^7 before loading on a sterile silicon chip placed in 24-well plate, then silicon chips were treated with active compounds. The plate was then sealed, and placed in an incubator for 24 hours at 37°C. After incubation, the treated silicon chips were washed with autoclaved distilled water thrice, air dried, and the samples were analyzed by atomic force microscope (Agilent Technologies, USA).

[3] = S. aureus ATCC 6538, replicate 1, read-out: % Inhibition 1
[4] = S. aureus ATCC 6538, replicate 2, read-out: % Inhibition 2
[5] = S. aureus ATCC 6538, replicate 3, read-out: % Inhibition 3
[6] = S. aureus ATCC 6538, read-out: Mean % Inhibition
[7] = 100 µg/mL, S. aureus ATCC 6538, replicate 1, read-out: % Inhibition 1
[8] = 100 µg/mL, S. aureus ATCC 6538, replicate 2, read-out: % Inhibition 2
[9] = 100 µg/mL, S. aureus ATCC 6538, replicate 3, read-out: % Inhibition 3
[10] = 100 µg/mL, S. aureus ATCC 6538, read-out: Mean % Inhibition
[11] = at 100 μg/mL, biofilm of S. aureus, 24 hours, read-out: Antibiofilm Activity (% Inhibition ± SEM)
[12] = at 100 μg/mL, biofilm of S. aureus, 24 hours

| Structure (SMILES) | inhibition at 3.125 µg/mL [1, 3] [%] | inhibition at 3.125 µg/mL [1, 4] [%] | inhibition at 3.125 µg/mL [1, 5] [%] | inhibition at 3.125 µg/mL [1, 6] [%] | inhibition at 6.25 µg/mL [1, 3] [%] | inhibition at 6.25 µg/mL [1, 4] [%] | inhibition at 6.25 µg/mL [1, 5] [%] | inhibition at 6.25 µg/mL [1, 6] [%] | inhibition at 12.5 µg/mL [1, 3] [%] | inhibition at 12.5 µg/mL [1, 4] [%] | inhibition at 12.5 µg/mL [1, 5] [%] | inhibition at 12.5 µg/mL [1, 6] [%] | inhibition at 25 µg/mL [1, 3] [%] | inhibition at 25 µg/mL [1, 4] [%] | inhibition at 25 µg/mL [1, 5] [%] | inhibition at 25 µg/mL [1, 6] [%] | inhibition at 50 µg/mL [1, 3] [%] | inhibition at 50 µg/mL [1, 4] [%] | inhibition at 50 µg/mL [1, 5] [%] | inhibition at 50 µg/mL [1, 6] [%] | other results |
| --- | --- | --- | --- | --- | --- | --- | --- | --- | --- | --- | --- | --- | --- | --- | --- | --- | --- | --- | --- | --- | --- |
| Cc1ccc2oc(=O)c(/C=N/Nc3nc(-c4cccc([N+](=O)[O-])c4)cs3)c(Cl)c2c1 [Compound 2, (E)-4-Chloro-6-methyl-3-((2-(4-(3-nitrophenyl)thiazol-2-yl)hydrazono)methyl)-2H-chromen-2-one] | 4.05 | 3.79 | 4.17 | 4 | 3.29 | 3.99 | 3.49 | 3.59 | 1.73 | 0.99 | 2.54 | 1.75 | 1.79 | 1.44 | 1.99 | 1.74 | 27 | 29.2 | 28.5 | 28.3 | inhibition at 100 µg/mL [1, 7]: 95%; inhibition at 100 µg/mL [1, 8]: 93.9%; inhibition at 100 µg/mL [1, 9]: 93.6%; inhibition at 100 µg/mL [1, 10]: 94.2%; inhibition at 100 µg/mL [1, 11]: 90 ± 3.24%; Antibiofilm Activity (% Inhibition ± SEM) [1, 12]: high potential to inhibit the biofilms; inhibition at 100 µg/mL (S. aureus): 15 ± 4.53%; Antibacterial Activity (% Inhibition ± SEM) (S. aureus): low antibacterial effect; Biofilm disruption seen by fluorescence microscopy [2]: Disruption on the surface of biofilm; Biofilm disruption seen by AFM (S. aureus biofilm): disrupt and degrade biofilm to varying degrees |
| Cc1ccc2oc(=O)c(/C=N/Nc3nc(-c4ccc(C#N)cc4)cs3)c(Cl)c2c1 [Compound 3, (E)-4-(2-(2-((4-Chloro-6-methyl-2-oxo-2H-chromen-3-yl)methylene)hydrazinyl)thiazol-4-yl)benzonitrile] | 12.7 | 11.7 | 13.9 | 12.8 | 22.7 | 21.1 | 22.5 | 22.1 | 26.9 | 29.2 | 27.4 | 27.8 | 55.9 | 57.8 | 56.6 | 56.8 | 74 | 76 | 77 | 75.6 | inhibition at 100 µg/mL [1, 7]: 93.2%; inhibition at 100 µg/mL [1, 8]: 90.2%; inhibition at 100 µg/mL [1, 9]: 93.1%; inhibition at 100 µg/mL [1, 10]: 92.2%; inhibition at 100 µg/mL [1, 11]: 91 ± 6.31%; Antibiofilm Activity (% Inhibition ± SEM) [1, 12]: high potential to inhibit the biofilms; inhibition at 100 µg/mL (S. aureus): 27 ± 6.41%; Antibacterial Activity (% Inhibition ± SEM) (S. aureus): low antibacterial effect; Biofilm disruption seen by fluorescence microscopy [2]: mild to extensive biofilm disruption and degradation; Biofilm disruption seen by AFM (S. aureus biofilm): disrupt and degrade biofilm to varying degrees |
| Cc1ccc2oc(=O)c(/C=N/Nc3nc(-c4ccc([N+](=O)[O-])cc4)cs3)c(Cl)c2c1 [Compound 4, (E)-4-Chloro-6-methyl-3-((2-(4-(4-nitrophenyl)thiazol-2-yl)hydrazono)methyl)-2H-chromen-2-one] | 2.92 | 1.79 | 3.04 | 2.58 | 7.04 | 8.05 | 9.02 | 8.04 | 6.69 | 5.79 | 5.68 | 6.05 | 29.1 | 30.1 | 28.1 | 29.1 | 66 | 67 | 66.1 | 66.4 | inhibition at 100 µg/mL [1, 7]: 86.8%; inhibition at 100 µg/mL [1, 8]: 84.3%; inhibition at 100 µg/mL [1, 9]: 86.6%; inhibition at 100 µg/mL [1, 10]: 85.9%; inhibition at 100 µg/mL [1, 11]: 90 ± 9.3%; Antibiofilm Activity (% Inhibition ± SEM) [1, 12]: high potential to inhibit the biofilms; inhibition at 100 µg/mL (S. aureus): 21 ± 4.51%; Antibacterial Activity (% Inhibition ± SEM) (S. aureus): low antibacterial effect; Biofilm disruption seen by fluorescence microscopy [2]: mild to extensive biofilm disruption and degradation; Biofilm disruption seen by AFM (S. aureus biofilm): disrupt and degrade biofilm to varying degrees |
| C/C(=N\Nc1nc(-c2ccc(Br)cc2)cs1)c1cc2ccccc2oc1=O [Compound 10, (E)-3-(1-(2-(4-(4-Bromophenyl)thiazol-2-yl)hydrazono)ethyl)-2H-chromen-2-one] | 1.98 | 1.44 | 1.54 | 1.65 | 5.34 | 4.99 | 5.53 | 5.29 | 7.56 | 7.29 | 7.21 | 7.35 | 2.34 | 2.21 | 2.09 | 2.21 | 39.5 | 39.8 | 39.8 | 39.7 | inhibition at 100 µg/mL [1, 7]: 69.4%; inhibition at 100 µg/mL [1, 8]: 69.5%; inhibition at 100 µg/mL [1, 9]: 68.9%; inhibition at 100 µg/mL [1, 10]: 69.3%; inhibition at 100 µg/mL [1, 11]: 69 ± 9.34%; Antibiofilm Activity (% Inhibition ± SEM) [1, 12]: high potential to inhibit the biofilms; inhibition at 100 µg/mL (S. aureus): 18 ± 3.73%; Antibacterial Activity (% Inhibition ± SEM) (S. aureus): low antibacterial effect; Biofilm disruption seen by fluorescence microscopy [2]: Disruption on the surface of biofilm; Biofilm disruption seen by AFM (S. aureus biofilm): Disrupted biofilm surfaces |
